Assay results taken from US11078222B2, “Hydroxybenzoic acid derivatives, methods and uses thereof” (UNiVERSIDADE DO PORTO, priority 2016, dated 2021).

Tests used:
[1] = system: rat liver mitochondria (RLM); experiment: Mitochondrial transmembrane electric potential (safranine fluorescence); assay type: biochemical
Description: In an embodiment, and as an example, the toxicity effects of some AntiOxBENs and MitoQ on the mitochondrial bioenergetics, namely on RLM Δψ and respiration parameters, were measured. The Δψ represents the main component of the electrochemical gradient generated by mitochondrial respiration and accounts for more than 90% of the total available energy. For mitochondrial respiration assays, glutamate/malate (for complex I) and succinate (for complex II) were used as substrates. In addition, the mitochondrial oxidative phosphorylation coupling index, known as respiratory control ratio (RCR, state 3/state 4 respiration) and ADP/O index (the coupling between ATP synthesis and oxygen consumption) were also calculated. AntiOxBENs and MitoQ were tested at antioxidant-relevant concentrations, with 10 μM being the highest concentration.
In an embodiment, the evaluation of AntiOxBENs effect on mitochondrial transmembrane electric potential (Δψ) was performed as follows: the mitochondrial transmembrane electric potential (Δψ) was estimated through the evaluation of fluorescence changes of safranine (5 μM) and was recorded on a spectrofluorometer operating at excitation and emission wavelengths of 495 and 586 nm, with a slit width of 5 nm. Increasing concentrations of AntiOxBENs (2.5-10 μM) were added to the reaction medium (200 mM sucrose, 1 mM KH2PO^4, 10 mM Tris (pH 7.4) and 10 μM EGTA) containing respiratory substrates glutamate/malate (5 mM and 2.5 mM respectively) or succinate (5 mM) and RLM (0.5 mg in 2 mL final volume) and allowed to incubate for a 5 min period prior to initiate the assay, at 25° C. In this assay, safranine (5 μM) and ADP (25 nmol) were used to initiate the assay and to induce depolarization, respectively. Then, 1 μM FCCP was added at the end of all experiments to depolarize mitochondria. Δψ was calculated using a calibration curve obtained when RLM were incubated in a K^+-free reaction medium containing 200 mM sucrose, 1 mM NaH2PO4, 10 mM Tris (pH 7.4) and 10 μM EGTA, supplemented with 0.4 μg valinomicin. […] “Repolarization” corresponded to the recovery of membrane potential after the complete phosphorylation of ADP added. Lag phase reflected the time required to phosphorylate the added ADP. Isolated RLM developed a Δψ≈226 mV and Δψ≈202 mV (negative inside) when glutamate/malate or succinate were used, respectively. Data are means±SEM of five independent experiments.

[2] = system: rat liver mitochondria (RLM); experiment: Mitochondrial uptake by energised RLM, TPP-selective electrode; assay type: in vitro ADME
Description: In an embodiment, and as an example, the mitochondrial uptake of some AntiOxBENs was assessed in isolated rat liver mitochondria (RLM) in response to the membrane potential. AntiOxBENs can accumulate inside mitochondria driven by the Δψ (FIG. 3A). Different AntiOxBENs accumulation outlines within the mitochondrial matrix have been measured. […] The following ranking order was attained: AntiOxBEN2<AntiOxBEN1<AntiOxBEN3.
In an embodiment, the AntiOxBENs mitochondria uptake by energized RLM was evaluated as follows: RLM (0.5 mg protein/mL) were incubated with AntiOxBENs at 37° C. under constant stirring in 1 mL of KCl medium (120 mM KCl, 10 mM HEPES, pH 7.2 and 1 mM EGTA). Five sequential 1 μM additions of each AntiOxBENs were performed to calibrate the electrode response in the presence of rotenone (1.5 μM). Then, succinate (10 mM) was added to generate […]. Valinomicin (0.2 μg/mL) was added at the end of the assay to dissipate Δψ. The measurements were performed with an ion-selective electrode, which measure the distribution of tetraphenylphosphonium cation (TPP+) and Ag/AgCl2 electrode as reference. The mitochondrial accumulation ratio was calculated by the disappearance of AntiOxBENs from extra- to intramitochondrial medium assuming an intramitochondrial volume of 0.5 μL/mg protein and a binding correction for the mitochondrial uptake of TPP compounds.

[3] = DPPH radical scavenging activity (total antioxidant capacity); assay type: biochemical; conditions: ethanol, 515 nm, 45 min
Description: The radical scavenging activity of AntiOxClNs was evaluated by means of total antioxidant capacity assays based on DPPH., ABTS.^+ and GO. radicals. All these methods involved the spectrophotometric measurement of the absorbance decrease resulting from radical (DPPH., ABTS.^+ or GO.) deactivation with an antioxidant. The results were expressed in IC50, which is defined as the minimum antioxidant concentration necessary to reduce the amount of radical by 50%. Antioxidant assays were performed in a multiplate reader (Powerwave XS Microplate Reader) from Bio Tech instruments.
A DPPH ethanolic solution (6.85 mM) was also prepared and then diluted to reach the absorbance of 0.72±0.02 at 515 nm. Each compound solution (20 μL) was added to 180 μL of DPPH. solution in triplicate, and the absorbance at 515 nm was recorded minutely over 45 minutes. […] Dose-response curves were established for the determination of IC50 values.

SMILES | ADP-induced depolarization (ΔΨ in - mV) ([1]; Glutamate/Malate, 2.5 μM) | Lag Phase ([1]; Glutamate/Malate, 2.5 μM) [s] | Maximum potential (ΔΨ in - mV) ([1]; Glutamate/Malate, 2.5 μM) | Repolarization Potential (ΔΨ in - mV) ([1]; Glutamate/Malate, 2.5 μM) | ADP-induced depolarization (ΔΨ in - mV) ([1]; Glutamate/Malate, 5 μM) | Lag Phase ([1]; Glutamate/Malate, 5 μM) [s] | Maximum potential (ΔΨ in - mV) ([1]; Glutamate/Malate, 5 μM) | Repolarization Potential (ΔΨ in - mV) ([1]; Glutamate/Malate, 5 μM) | ADP-induced depolarization (ΔΨ in - mV) ([1]; Glutamate/Malate, 10 μM) | Lag Phase ([1]; Glutamate/Malate, 10 μM) [s] | Maximum potential (ΔΨ in - mV) ([1]; Glutamate/Malate, 10 μM) | Repolarization Potential (ΔΨ in - mV) ([1]; Glutamate/Malate, 10 μM) | ADP-induced depolarization (ΔΨ in - mV) ([1]; Succinate, 2.5 μM) | Lag Phase ([1]; Succinate, 2.5 μM) [s] | Maximum potential (ΔΨ in - mV) ([1]; Succinate, 2.5 μM) | Repolarization Potential (ΔΨ in - mV) ([1]; Succinate, 2.5 μM) | ADP-induced depolarization (ΔΨ in - mV) ([1]; Succinate, 5 μM) | Lag Phase ([1]; Succinate, 5 μM) [s] | Maximum potential (ΔΨ in - mV) ([1]; Succinate, 5 μM) | Repolarization Potential (ΔΨ in - mV) ([1]; Succinate, 5 μM) | also measured
O=C(NCCCCCC[P+](c1ccccc1)(c1ccccc1)c1ccccc1)c1ccc(O)c(O)c1.[Br-] [AntiOxBEN1, 6-(3,4-dihydroxybenzamido)hexyltriphenylphosphonium bromide] | 199.5 ± 16.6 - mV | 131.8 ± 18.9 | 216.8 ± 18.9 - mV | 212.3 ± 18.2 - mV | 209.4 ± 20.3 - mV | 137.8 ± 22.5 | 224.8 ± 24.7 - mV | 219.0 ± 22.9 - mV | 192.6 ± 15.0 - mV | 148.7 ± 48.4 | 200.4 ± 16.0 - mV | 199.4 ± 17.1 - mV | 180.3 ± 17.1 - mV | 120.0 ± 32.1 | 191.4 ± 18.2 - mV | 190.3 ± 17.4 - mV | 175.4 ± 12.9 - mV | 93.6 ± 29.2 | 184.9 ± 13.1 - mV | 181.0 ± 13.5 - mV | ADP-induced depolarization (ΔΨ in - mV) ([1]; Succinate, 10 μM): 182.4 ± 14.4 - mV; Lag Phase ([1]; Succinate, 10 μM): 105.0 ± 28.1 s; Maximum potential (ΔΨ in - mV) ([1]; Succinate, 10 μM): 188.9 ± 14.8 - mV; Repolarization Potential (ΔΨ in - mV) ([1]; Succinate, 10 μM): 188.8 ± 15.8 - mV; accumulation ratio by rat liver mitochondria ([2]; energised RLM, succinate): AntiOxBEN2<AntiOxBEN1<AntiOxBEN3; IC50 [3]: 27.3 µM
O=C(NCCCCCC[P+](c1ccccc1)(c1ccccc1)c1ccccc1)c1cc(O)c(O)c(O)c1.[Br-] [AntiOxBEN2, 6-(3,4,5-trihydroxybenzamido)hexyltriphenylphosphonium bromide] | 200.5 ± 17.5 - mV | 124.7 ± 19.2 | 217.8 ± 18.8 - mV | 216.8 ± 17.9 - mV | 194.9 ± 15.6 - mV | 147.5 ± 31.2 | 212.2 ± 19.8 - mV | 209.0 ± 17.8 - mV | 200.1 ± 18.2 - mV | 146.2 ± 30.9 | 209.5 ± 19.1 - mV | 208.4 ± 18.6 - mV | 184.5 ± 19.2 - mV | 115.4 ± 21.0 | 197.6 ± 18.2 - mV | 193.6 ± 17.8 - mV | 191.2 ± 17.8 - mV | 118.0 ± 26.4 | 204.6 ± 18.1 - mV | 200.4 ± 17.0 - mV | ADP-induced depolarization (ΔΨ in - mV) ([1]; Succinate, 10 μM): 190.9 ± 16.8 - mV; Lag Phase ([1]; Succinate, 10 μM): 124.8 ± 37.2 s; Maximum potential (ΔΨ in - mV) ([1]; Succinate, 10 μM): 199.8 ± 16.0 - mV; Repolarization Potential (ΔΨ in - mV) ([1]; Succinate, 10 μM): 198.6 ± 17.2 - mV; accumulation ratio by rat liver mitochondria ([2]; energised RLM, succinate): AntiOxBEN2<AntiOxBEN1<AntiOxBEN3; IC50 [3]: 18.3 µM
O=C(CCCCC[P+](c1ccccc1)(c1ccccc1)c1ccccc1)NCCCCCCNC(=O)c1cc(O)c(O)c(O)c1.[Br-] [AntiOxBEN3, [5-(6-(3,4,5-trihydroxybenzamido)hexylamino)carbonylpentyl]triphenylphosphonium bromide] | 202.9 ± 18.7 - mV | 137.5 ± 20.3 | 221.1 ± 20.2 - mV | 217.0 ± 17.7 - mV | 204.5 ± 21.6 - mV | 154.5 ± 21.5 | 221.4 ± 22.6 - mV | 216.4 ± 21.3 - mV | 216.4 ± 25.3 - mV | 143.0 ± 21.7 | 227.5 ± 26.3 - mV | 222.9 ± 25.4 - mV | 188.0 ± 19.7 - mV | 132.6 ± 22.7 | 203.6 ± 16.6 - mV | 198.4 ± 18.4 - mV | 191.1 ± 20.0 - mV | 119.8 ± 32.2 | 205.3 ± 19.4 - mV | 199.1 ± 19.2 - mV | ADP-induced depolarization (ΔΨ in - mV) ([1]; Succinate, 10 μM): 198.2 ± 19.3 - mV; Lag Phase ([1]; Succinate, 10 μM): 114.4 ± 24.3 s; Maximum potential (ΔΨ in - mV) ([1]; Succinate, 10 μM): 207.9 ± 19.3 - mV; Repolarization Potential (ΔΨ in - mV) ([1]; Succinate, 10 μM): 207.5 ± 19.4 - mV; accumulation ratio by rat liver mitochondria ([2]; rat, 5 μM, pH 7.2): AntiOxBEN2<AntiOxBEN1<AntiOxBEN3; IC50 [3]: 18.7 µM
